Laboratory results taken from paper PMC8857485, “Prostate secretory protein 94 inhibits sterol binding and export by the mammalian CAP protein CRISP2 in a calcium-sensitive manner” (The Journal of Biological Chemistry, 2022).
Where a name gives a salt, the structure may show the parent alone.

Tests used:
[1] = target: T1, CRISP2^N97P Y99P (Homo sapiens, UniProt P16562, N97P/Y99P); assay: MST binding to CRISP2 double mutant N97P Y99P; set-up: species or system mammalian; details: absence of PSP94, read-out: Kd, sterol binding by CRISP2^N97P Y99P
T1 construct: made in house; host or cells: E. coli
Experimental: Next, we generated all three double mutant combinations of CRISP2: N97P L98G, N97P Y99P, and L98G Y99P. These three double mutant versions of CRISP2 were again expressed as His-tagged proteins in E. coli and purified, and their capacity to bind sterols in the presence or absence of PSP94 was assessed by MST. […] The capacity of the CRISP2^L98G Y99P double mutant to bind sterols even in the presence of PSP94 was confirmed by the in vivo sterol export assay (Fig. 6, A and B). When expressed in yeast cells, the CRISP2^L98G Y99P double mutant was stably expressed and secreted as monitored by Western blotting (Fig. 6C).
MST experiments were performed to assess protein–protein, protein–lipid, and protein–calcium interactions using a Monolith NT.115 (Nanotemper Technologies). Proteins were labeled using the RED-tris-NTA His tag protein labeling kit. Labeled CAP proteins, 100 nM, were mixed with a serial dilution of unlabeled PSP94, PSP9^F24G, cholesterol sulfate, or calcium chloride, prepared in binding buffer (20 mM Tris pH 7.5, 30 mM NaCl, 0.05% Triton X-100). Samples were loaded into MST standard capillaries, and MST measurements were performed using an 80% laser power setting. The dissociation constant Kd was obtained by plotting the normalized fluorescence (Fnorm) against the logarithm of ligand concentration. […]

[2] = target: T2, CRISP2 N97P (Homo sapiens, UniProt P16562, N97P); assay: MST binding to CRISP2 single mutant N97P; set-up: species or system mammalian; details: absence of PSP94, read-out: Kd, sterol binding by CRISP2 N97P
T2 construct: made in house; host or cells: E. coli
Text: This interaction is thus located outside the hydrophobic loop that harbors the sterol-binding CBM. Based on these structural considerations, it is thus not apparent why and how the interaction between PSP94 and CRISP2 would block sterol binding at the CBM. To investigate this question in more detail, we first performed computational docking studies to identify residues in CRISP2 that are critical for the interaction with PSP94. […] Two of these three interacting residues, N97 and L98, are conserved in all three CAP family members tested here, CRISP2, CRISP3, and Pry1 (Fig. 4A). […]
MST experiments were performed to assess protein–protein, protein–lipid, and protein–calcium interactions using a Monolith NT.115 (Nanotemper Technologies). […] The dissociation constant Kd was obtained by plotting the normalized fluorescence (Fnorm) against the logarithm of ligand concentration. […]
Quadruple mutant cells lacking the acyl-CoA synthetases FAA1 and FAA4 and the yeast CAP family members PRY1 and PRY3 (faa1∆ faa4∆ pry1∆ pry3∆) expressing different combinations of plasmid-borne copies of PRY1, CRISP2, and or PSP94, or their respective empty vectors (pRS423 or pRS426) were cultivated overnight. The export of fatty acids into the culture medium was then quantified. […]

T2 sequence (P16562 22-243 N97P): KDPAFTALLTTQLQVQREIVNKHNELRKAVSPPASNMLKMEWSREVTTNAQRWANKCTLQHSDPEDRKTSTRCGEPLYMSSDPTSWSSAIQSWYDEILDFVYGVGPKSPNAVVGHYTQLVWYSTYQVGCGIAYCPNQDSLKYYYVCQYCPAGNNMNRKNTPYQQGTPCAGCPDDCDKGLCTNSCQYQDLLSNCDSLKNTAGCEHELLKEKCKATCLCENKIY
T1 sequence (P16562 22-243 N97P/Y99P): as the sequence (P16562 22-243 N97P) above, with Y78P counted along it

CC(C)CCC[C@@H](C)[C@H]1CC[C@H]2[C@@H]3CC=C4C[C@@H](OS(=O)(=O)O)CC[C@]4(C)[C@H]3CC[C@]12C [cholesterol sulfate]
Kd [1]: 2.7 ± 2.3 µM | Kd [2]: 3.1 ± 1.5 µM
